Source: ChEMBL document CHEMBL4819104, “Discovery of 2-amino-3-amido-5-aryl-pyridines as highly potent, orally bioavailable, and efficacious PERK kinase inhibitors” (Bioorg Med Chem Lett, 2021)

What was measured:
[1] = biological target: T1, Eukaryotic translation initiation factor 2-alpha kinase 3 (Homo sapiens, UniProt Q9NZJ5); test: Inhibition of human His-tagged PERK expressed in Escherichia coli assessed as eIF2alpha phosphorylation by TR-FRET assay
T1 sequence (Q9NZJ5 whole entry): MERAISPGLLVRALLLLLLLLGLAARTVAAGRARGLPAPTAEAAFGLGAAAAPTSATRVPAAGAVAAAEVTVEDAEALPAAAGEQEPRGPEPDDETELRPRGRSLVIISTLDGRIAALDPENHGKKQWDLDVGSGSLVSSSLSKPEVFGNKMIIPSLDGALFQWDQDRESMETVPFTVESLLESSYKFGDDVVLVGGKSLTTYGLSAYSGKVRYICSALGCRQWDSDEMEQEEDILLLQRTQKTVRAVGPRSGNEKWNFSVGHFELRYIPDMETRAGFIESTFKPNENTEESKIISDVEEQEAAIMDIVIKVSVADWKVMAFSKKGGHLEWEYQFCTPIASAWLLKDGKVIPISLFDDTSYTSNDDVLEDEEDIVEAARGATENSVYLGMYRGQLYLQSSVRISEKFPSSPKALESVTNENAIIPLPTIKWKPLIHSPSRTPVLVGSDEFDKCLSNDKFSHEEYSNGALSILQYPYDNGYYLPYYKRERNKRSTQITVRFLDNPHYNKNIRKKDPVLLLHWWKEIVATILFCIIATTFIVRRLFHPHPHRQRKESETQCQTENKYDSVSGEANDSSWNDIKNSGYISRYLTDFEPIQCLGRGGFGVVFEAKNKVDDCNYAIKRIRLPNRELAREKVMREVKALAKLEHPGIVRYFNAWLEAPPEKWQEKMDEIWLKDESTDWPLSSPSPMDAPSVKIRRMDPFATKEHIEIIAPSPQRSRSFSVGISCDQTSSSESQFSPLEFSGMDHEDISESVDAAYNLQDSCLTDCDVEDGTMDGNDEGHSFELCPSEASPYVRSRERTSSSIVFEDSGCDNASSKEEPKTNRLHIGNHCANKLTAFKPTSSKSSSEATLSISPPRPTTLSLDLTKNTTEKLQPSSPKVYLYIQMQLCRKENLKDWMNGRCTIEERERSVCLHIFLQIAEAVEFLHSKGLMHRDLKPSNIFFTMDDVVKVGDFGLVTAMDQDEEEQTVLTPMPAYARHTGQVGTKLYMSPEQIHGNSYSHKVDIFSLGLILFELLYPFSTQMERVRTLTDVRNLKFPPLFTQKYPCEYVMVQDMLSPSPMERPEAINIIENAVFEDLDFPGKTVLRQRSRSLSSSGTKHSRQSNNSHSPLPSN

[2] = Apparent permeability of the compound across apical to basolateral side in human Caco-2 cells; format: ADME, cell-based; conditions: read-out: permeability
[3] = Plasma protein binding in rat; format: ADME, cell-free; conditions: read-out: PPB (converted)
[4] = Plasma protein binding in dog; format: ADME, cell-free, Canis lupus familiaris; conditions: read-out: PPB (converted)
[5] = Half life in human hepatocytes; format: ADME, cell-based, Hepatocyte
[6] = biological target: Epithelial discoidin domain-containing receptor 1 (Homo sapiens) (UniProt Q08345); test: Inhibition of wild-type human partial length DDR1 (R565 to V876 residues) expressed in bacterial expression system assessed as residual activity at 10 uM by Kinomescan method relative to control
Epithelial discoidin domain-containing receptor 1 (Homo sapiens), sequence (Q08345 whole entry, the tested form may be a part): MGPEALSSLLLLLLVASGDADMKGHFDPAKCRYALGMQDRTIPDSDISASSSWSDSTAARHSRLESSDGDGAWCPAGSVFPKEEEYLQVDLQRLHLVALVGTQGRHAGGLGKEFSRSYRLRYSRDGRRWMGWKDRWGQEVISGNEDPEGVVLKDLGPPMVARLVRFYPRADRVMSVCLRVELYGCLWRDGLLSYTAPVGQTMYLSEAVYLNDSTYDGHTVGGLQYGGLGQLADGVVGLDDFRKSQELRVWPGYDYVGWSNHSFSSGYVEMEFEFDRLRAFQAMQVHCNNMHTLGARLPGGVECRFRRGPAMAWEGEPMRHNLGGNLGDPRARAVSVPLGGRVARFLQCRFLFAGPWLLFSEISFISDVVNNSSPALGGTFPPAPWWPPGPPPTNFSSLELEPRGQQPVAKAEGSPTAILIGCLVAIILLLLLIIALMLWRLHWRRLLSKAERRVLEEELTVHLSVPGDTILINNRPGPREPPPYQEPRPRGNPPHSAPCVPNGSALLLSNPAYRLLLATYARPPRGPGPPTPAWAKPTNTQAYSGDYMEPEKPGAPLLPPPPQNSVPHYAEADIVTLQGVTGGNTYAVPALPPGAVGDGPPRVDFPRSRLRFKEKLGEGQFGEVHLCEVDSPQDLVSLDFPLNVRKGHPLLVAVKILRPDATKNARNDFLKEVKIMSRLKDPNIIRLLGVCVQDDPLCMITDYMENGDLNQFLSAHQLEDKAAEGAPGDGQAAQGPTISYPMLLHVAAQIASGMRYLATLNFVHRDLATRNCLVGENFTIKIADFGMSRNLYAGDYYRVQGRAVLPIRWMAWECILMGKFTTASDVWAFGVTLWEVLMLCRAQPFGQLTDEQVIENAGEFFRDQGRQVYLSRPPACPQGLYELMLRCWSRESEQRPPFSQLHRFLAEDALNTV

[7] = biological target: Mast/stem cell growth factor receptor Kit (Homo sapiens) (UniProt P10721); test: Inhibition of wild-type human partial length KIT (I571 to D952 residues) expressed in bacterial expression system assessed as residual activity at 10 uM by Kinomescan method relative to control
Mast/stem cell growth factor receptor Kit (Homo sapiens), sequence (P10721 whole entry, the tested form may be a part): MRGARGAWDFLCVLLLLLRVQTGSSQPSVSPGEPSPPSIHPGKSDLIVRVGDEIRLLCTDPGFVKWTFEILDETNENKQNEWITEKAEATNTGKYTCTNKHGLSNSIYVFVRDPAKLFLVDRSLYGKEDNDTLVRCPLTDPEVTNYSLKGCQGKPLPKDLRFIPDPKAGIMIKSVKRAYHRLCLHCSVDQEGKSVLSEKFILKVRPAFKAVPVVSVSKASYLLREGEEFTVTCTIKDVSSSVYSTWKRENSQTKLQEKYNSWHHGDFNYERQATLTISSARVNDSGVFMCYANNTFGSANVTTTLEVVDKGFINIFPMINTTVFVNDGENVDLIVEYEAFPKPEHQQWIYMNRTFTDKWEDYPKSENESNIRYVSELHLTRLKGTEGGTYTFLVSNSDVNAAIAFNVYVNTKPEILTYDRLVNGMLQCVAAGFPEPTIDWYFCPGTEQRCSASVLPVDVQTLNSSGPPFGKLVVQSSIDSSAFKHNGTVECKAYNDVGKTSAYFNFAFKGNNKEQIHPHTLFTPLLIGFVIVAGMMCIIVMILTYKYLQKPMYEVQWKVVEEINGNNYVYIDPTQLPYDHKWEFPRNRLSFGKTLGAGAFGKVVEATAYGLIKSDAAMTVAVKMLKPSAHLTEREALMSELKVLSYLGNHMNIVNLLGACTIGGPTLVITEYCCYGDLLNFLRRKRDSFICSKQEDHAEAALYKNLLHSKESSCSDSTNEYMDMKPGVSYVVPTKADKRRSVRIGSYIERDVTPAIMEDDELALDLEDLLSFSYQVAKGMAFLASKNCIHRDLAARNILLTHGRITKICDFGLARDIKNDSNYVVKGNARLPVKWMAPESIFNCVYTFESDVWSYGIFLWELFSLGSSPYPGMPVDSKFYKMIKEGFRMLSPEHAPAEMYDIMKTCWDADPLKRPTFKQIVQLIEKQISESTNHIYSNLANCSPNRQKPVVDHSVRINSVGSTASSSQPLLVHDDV

[8] = biological target: T2, Mitogen-activated protein kinase 12 (Homo sapiens) (UniProt P53778); test: Inhibition of wild-type human full length p38-gamma (M1 to L367 residues) expressed in mammalian expression system assessed as residual activity at 10 uM by Kinomescan method relative to control
T2 sequence (whole entry): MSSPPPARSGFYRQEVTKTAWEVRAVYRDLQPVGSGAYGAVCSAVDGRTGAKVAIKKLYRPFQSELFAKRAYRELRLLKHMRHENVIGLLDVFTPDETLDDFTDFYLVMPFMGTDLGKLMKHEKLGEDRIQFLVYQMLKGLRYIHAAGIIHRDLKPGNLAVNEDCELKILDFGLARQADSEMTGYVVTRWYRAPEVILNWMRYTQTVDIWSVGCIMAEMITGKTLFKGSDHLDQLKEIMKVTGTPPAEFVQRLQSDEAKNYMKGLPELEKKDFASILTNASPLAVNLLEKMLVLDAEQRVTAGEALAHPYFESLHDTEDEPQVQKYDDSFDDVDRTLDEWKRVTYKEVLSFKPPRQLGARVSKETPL

[9] = biological target: T3, Receptor-interacting serine/threonine-protein kinase 1 (Homo sapiens) (UniProt Q13546); test: Inhibition of wild-type human partial length RIPK1 (M1 to K305 residues) expressed in bacterial expression system assessed as residual activity at 10 uM by Kinomescan method relative to control
T3 sequence (whole entry): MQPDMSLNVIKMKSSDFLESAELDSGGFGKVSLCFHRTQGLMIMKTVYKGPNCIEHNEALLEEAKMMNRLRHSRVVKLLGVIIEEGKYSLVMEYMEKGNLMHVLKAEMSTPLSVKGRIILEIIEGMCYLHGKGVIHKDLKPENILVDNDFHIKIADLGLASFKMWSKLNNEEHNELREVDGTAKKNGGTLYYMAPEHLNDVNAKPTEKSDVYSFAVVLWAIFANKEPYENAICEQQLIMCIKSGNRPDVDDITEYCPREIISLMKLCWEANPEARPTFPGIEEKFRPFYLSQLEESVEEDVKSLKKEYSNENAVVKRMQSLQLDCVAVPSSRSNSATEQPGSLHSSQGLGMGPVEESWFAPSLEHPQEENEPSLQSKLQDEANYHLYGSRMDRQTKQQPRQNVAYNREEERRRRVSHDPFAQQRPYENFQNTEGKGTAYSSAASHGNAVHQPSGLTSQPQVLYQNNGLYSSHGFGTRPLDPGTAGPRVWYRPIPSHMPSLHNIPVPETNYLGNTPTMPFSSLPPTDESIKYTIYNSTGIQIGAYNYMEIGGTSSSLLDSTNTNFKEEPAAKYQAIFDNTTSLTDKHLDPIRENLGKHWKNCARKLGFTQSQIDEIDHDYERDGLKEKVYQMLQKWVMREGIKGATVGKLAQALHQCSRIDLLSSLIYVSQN

[10] = biological target: Angiopoietin-1 receptor (Homo sapiens) (UniProt Q02763); test: Inhibition of wild-type human partial length TIE2 (N804 to T1112 residues) expressed in bacterial expression system assessed as residual activity at 10 uM by Kinomescan method relative to control
Angiopoietin-1 receptor (Homo sapiens), sequence (Q02763 whole entry, the tested form may be a part): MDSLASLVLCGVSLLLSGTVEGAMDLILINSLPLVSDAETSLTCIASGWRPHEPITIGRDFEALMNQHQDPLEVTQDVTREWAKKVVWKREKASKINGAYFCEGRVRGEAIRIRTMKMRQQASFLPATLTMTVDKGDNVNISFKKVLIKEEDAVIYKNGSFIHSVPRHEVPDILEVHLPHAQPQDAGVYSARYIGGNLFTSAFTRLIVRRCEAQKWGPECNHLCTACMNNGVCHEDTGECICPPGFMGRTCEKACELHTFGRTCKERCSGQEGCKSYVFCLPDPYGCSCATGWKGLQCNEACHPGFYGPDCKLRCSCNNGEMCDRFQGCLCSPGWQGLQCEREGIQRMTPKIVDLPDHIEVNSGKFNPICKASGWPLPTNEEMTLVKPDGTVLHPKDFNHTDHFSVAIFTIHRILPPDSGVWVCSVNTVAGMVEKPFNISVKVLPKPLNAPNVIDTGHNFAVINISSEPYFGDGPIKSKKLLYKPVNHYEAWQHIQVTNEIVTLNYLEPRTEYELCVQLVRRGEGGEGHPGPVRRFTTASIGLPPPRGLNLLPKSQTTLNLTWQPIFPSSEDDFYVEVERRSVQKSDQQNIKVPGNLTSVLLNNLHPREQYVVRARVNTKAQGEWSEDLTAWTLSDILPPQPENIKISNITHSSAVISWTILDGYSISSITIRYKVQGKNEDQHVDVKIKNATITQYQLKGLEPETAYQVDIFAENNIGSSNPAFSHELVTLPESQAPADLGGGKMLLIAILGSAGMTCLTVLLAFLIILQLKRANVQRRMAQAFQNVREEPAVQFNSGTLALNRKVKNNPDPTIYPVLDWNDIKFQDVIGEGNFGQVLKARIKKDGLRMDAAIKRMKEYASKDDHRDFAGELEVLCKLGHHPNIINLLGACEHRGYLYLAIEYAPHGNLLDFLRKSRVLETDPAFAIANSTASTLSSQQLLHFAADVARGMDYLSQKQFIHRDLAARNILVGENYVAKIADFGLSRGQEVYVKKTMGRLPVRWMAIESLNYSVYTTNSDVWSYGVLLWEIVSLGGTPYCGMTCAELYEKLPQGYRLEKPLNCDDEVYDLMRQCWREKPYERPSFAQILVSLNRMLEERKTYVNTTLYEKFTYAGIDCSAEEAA

[11] = AUC (0 to last) in mouse at 10 mg/kg, po; format: ADME, organism-based; set-up: time 0 - last, route oral, dose 10 mg/kg; conditions: in vivo
[12] = test system: 786-0; test: Anticancer activity against human 786-0 cells xenografted in clear cell renal cell carcinoma mouse model assessed as tumor growth inhibition at 10 mg/kg measured at day 28 relative to control; format: functional; conditions: 786-0, 672 h, read-out: TGI

Compound: CCc1cc(NC(=O)[C@H](O)c2cc(F)cc(F)c2)ccc1-c1cnc(N)c(C(=O)NC(C)C)c1
- IC50 [1]: 2 nM
- Papp A→B [2]: 22 ×10⁻⁶ cm/s
- fraction unbound [3]: 0.007
- fraction unbound [4]: 0.002
- half-life [5]: 5.17 h
- Activity [6]: 100%
- Activity [7]: 67%
- Activity [8]: 87%
- Activity [9]: 100%
- Activity [10]: 85%
- AUC(0-t) [11]: 5150 ng·h/mL
- inhibition in vivo at 10 mg/kg [12]: 40%
